Assay results taken from patent publication US20180360707A1, “COMPOSITION AND METHOD FOR INCREASE OF SURVIVAL AND STABILIZATION OF PROBIOTIC BACTERIA (PB) IN DETERGENT BASED COMPOSITIONS OF PERSONAL HYGIENE AND DOMESTIC PRODUCTS” (UAB "PROBIOSANUS", priority 2015, published 2018).

Tested on: Bacillus coagulans DSM 2311
Assay: Analysis of encapsulated and non-capsulated bacteria viability (CFU survival) in detergent solution, cosmetic compound solution or final detergent based product
Type: cell-based
Experimental: For all experimental trails probiotic strain of Bacillus coagulans DSM 2311 was used which was obtained from DSMZ. Bacterial cell suspension was prepared by cultivation of B. coagulans cells in 100 mL of liquid nutrient broth medium (Oxoid) in 1000 mL Erlenmeyer flask, for 24 hours at 37° C. while shaking at 180 rmp. Prior to encapsulation the cells were collected by centrifugation at 6000 rpm using Rotofix 32 A Hettich, then washed twice and re-suspended in sterile 0.9% NaCl solution to obtain cell concentration of 10^11 per mL.
1 g of ˜10^10 bacteria-containing lyophilized and rehydrated or fresh microcapsules was added to the fixed volume (100 mL) of either: detergent solution, cosmetic compound containing solution or final formulation detergent based product, and incubated at 37° C. temperature. The samples were harvested at certain timepoints to evaluate bacterial survival. After sample harvest the bacterial capsules were washed twice with sterile water and added to a fixed volume of sterile 2% sodium citrate solution for liberation of encapsulated bacteria. The cell suspension was diluted from 10^1 to 10^5 fold and 100 μL of solution was plated on Petri dishes filled with Nutrient Broth solid medium. The survival rates [%] of capsulated and non-capsulated bacteria was estimated by comparing CFU averages at each sample point, from 3 replicas. See formulas:
[formula] • N—estimated CFU; • CFU—sum of calculated colonies from each evaluated Petri plates • Vp—plated volume • Vfd—final dilution volume • D—dilution fold • Survival of bacteria [%]=N(1+n)/N1*100 • N1—bacterial CFU's from first timepoint sample • N(1+n)—bacterial CFU's from following timepoint sample
1 g of 10^10 bacteria-containing rehydrated or fresh microcapsules was added to the fixed volume (100 mL) of detergent solution and incubated for 120 hours at 37° C. temperature. A parallel experiment was performed with non-capsulated cells (control group). After the sample harvest the bacterial capsules were washed twice with sterile water and added to the fixed volume of sterile 2% sodium citrate solution for liberation of encapsulated bacteria. The cell suspension was diluted 10^1-10^5 fold and 100 μL plated on replicates of Nutrient Broth solid medium. The survival rates [%] of capsulated and non-capsulated bacteria were estimated as described in the section—Analysis of encapsulated bacteria viability in detergent based solution, by comparing CFU averages at each sample time point from 3 replicas.
1 g of 10^10 bacteria containing lyophilized-rehydrated microcapsules was added to the fixed volume (100 mL) of solutions of: Grapefruit seed extract d-limonene, or Azadirachta indica extract and incubated for 120 hours at 37° C. temperature. A parallel experiment was performed with non-capsulated cells. After sample harvest the bacterial capsules were washed twice with sterile water and added to the fixed volume of sterile 2% sodium citrate solution for liberation of encapsulated bacteria. The cell suspension was diluted 10^1-10^5 fold and 100 μL of solution was plated on replicates of Nutrient Broth solid medium. The survival rates [%] of capsulated and non-capsulated bacteria were estimated as described in the section—Analysis of encapsulated bacteria viability in detergent based solution, by comparing CFU averages at each sample point, from 3 replicas. […]

cocamide diethanolamine
non-capsulated bacteria inactivated (3% cocamide diethanolamine solution, 37° C.): 75%

C=C(C)[C@H]1CC=C(C)CC1 [terpenes, d-limonene]
non-capsulated B. Coagulans bacteria inactivated (0.7% terpene d-limonene solution, in 2 hours): 100%

CCCCCCCCCCCCOS(=O)(=O)[O-].[Na+] [SLS, sodium lauryl sulphate]
non-capsulated bacteria inactivated (6.7% sodium lauryl sulphate (SLS) solution, 37° C.): 80%

cocoglycozide
non-capsulated bacteria inactivated (7% cocoglycozide solution, 37° C.): 75%

cocoamide propyl betaine [CAPB]
non-capsulated bacteria (starting titers) inactivated (cocoamide propyl betaine (CAPB) 6.7% solution, after 0.5 h, 37° C.): 97%
